Test results as given in patent US7811760B2, “Vector and method for detecting the change in transcription amount” (priority 2006, dated 2010).

Molecular target: T1, aryl hydrocarbon receptor (Rattus norvegicus, UniProt P41738, Q794H)
T1 construct: The SD-line rat AhR gene-coding region was amplified from the reverse-transcribed sample by means of PCR; V5-His (C-terminal tag of vector pcDNA4/V5-His B); expressed in transfected cells; host or cells: mouse neuroblastoma Neuro2a, transient transfection with LIPOFECTAMINE 2000
T1 sequence (P41738 10-853 Q794H): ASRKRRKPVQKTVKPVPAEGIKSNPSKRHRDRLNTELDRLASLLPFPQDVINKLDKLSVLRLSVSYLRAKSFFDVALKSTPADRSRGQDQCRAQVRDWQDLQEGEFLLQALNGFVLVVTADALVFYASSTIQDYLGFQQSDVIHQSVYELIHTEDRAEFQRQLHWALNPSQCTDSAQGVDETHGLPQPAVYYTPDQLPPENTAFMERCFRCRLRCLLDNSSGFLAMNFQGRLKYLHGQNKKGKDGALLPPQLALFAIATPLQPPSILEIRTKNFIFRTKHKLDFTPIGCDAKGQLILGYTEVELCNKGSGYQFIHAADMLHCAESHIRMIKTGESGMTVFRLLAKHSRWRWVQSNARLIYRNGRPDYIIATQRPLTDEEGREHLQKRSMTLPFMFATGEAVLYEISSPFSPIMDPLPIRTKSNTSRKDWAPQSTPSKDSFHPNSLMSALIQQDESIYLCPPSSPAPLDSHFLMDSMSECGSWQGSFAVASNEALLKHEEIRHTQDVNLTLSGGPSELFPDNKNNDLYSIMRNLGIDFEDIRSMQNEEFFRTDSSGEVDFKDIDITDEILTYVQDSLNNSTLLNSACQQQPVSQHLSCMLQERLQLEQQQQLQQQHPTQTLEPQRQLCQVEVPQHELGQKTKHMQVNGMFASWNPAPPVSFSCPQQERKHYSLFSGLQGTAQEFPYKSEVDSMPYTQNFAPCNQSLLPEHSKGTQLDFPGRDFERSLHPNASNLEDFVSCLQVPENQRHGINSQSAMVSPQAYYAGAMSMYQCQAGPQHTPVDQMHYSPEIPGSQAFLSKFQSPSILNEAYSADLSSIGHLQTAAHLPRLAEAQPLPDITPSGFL
Assay: Reporter gene (luciferase) assay in Neuro2a cells carrying PGV-THp25 (2.5 kbp TH transcriptional regulatory region) and pcDNA4-rAhR
Format: cell-based, SD-line rat
Settings: PGV-pTH25-introduced Neuro2a; for expression amount of the reporter gene (increase versus unexposed): 30 hours
From the text: In this Example, the PGV-THp25 prepared in Example 2 was used. Neuro2a was used as the cell.
Two kinds of vectors, pcDNA4-rAhR (Example 1) and pcDNA4/V5-His/lacZ (Invitrogen), were introduced into Neuro2a, together with PGV-THp25. pcDNA4-rAhR was introduced for constitutive expression of the SD-line rat AhR gene (SEQ ID No: 10) in the cell, and pcDNA4/V5-His/lacZ was introduced for normalization of the vector transfection efficiency.
The vectors were introduced into the cell by using LIPOFECTAMINE 2000 (Invitrogen). The cell was cultured on a 24-well plate, and the operation was performed according to the manual of Invitrogen. A total of 0.8 μg of vectors (0.4 μg of PGV-THp25, 0.2 μg of pcDNA4-rAhR, and 0.2 μg of pcDNA4/V5-His/lacZ) suspended in 50 μl of OPTI-MEM medium and 2 μl of LIPOFECTAMINE 2000 suspended in 50 μl of OPTI-MEM medium were mixed, and incubated at room temperature for 20 minutes to form nucleic acid/LIPOFECTAMINE 2000 complex. The obtained suspension containing the complex was added to Neuro2a cell culture, which has been previously cultured overnight in 500 μl of DF1:1 medium (containing 10% fetal calf serum) (0.8×10^5 cells were seeded on previous day), to allow incorporation of the vectors into the cell. The cell was cultured additionally for 24 hours after the transfection, for the purpose of improvement in vector incorporation efficiency and expression of the proteins derived from the introduced vectors.
As the test substance, a solution of dioxin (2,3,7,8-tetrachlorodibenzo-p-dioxine, TCDD) in dimethylsulfoxide (manufactured by Kanto Kagaku Co. Inc.) was used. After the transfection and the additional incubation for 24 hours, the medium was replaced with a fresh medium containing TCDD (at 0, 0.01, 1, or 100 nM), and the cell was cultured additionally for 30 hours. After 30 hours, the medium was removed from the 24-well plate, and the cell was washed with phosphate buffer twice. 100 μl of a protein extraction solution (manufactured by TOYO B-NET) was added to each well, and the cell suspension was stirred gently at room temperature for 15 minutes and then frozen at −80° C. The frozen solution was thawed at room temperature, and the resulting solution was recovered in a tube and diluted ten times with a protein extraction reagent containing 1 mg/ml bovine serum albumin. Luciferase and β-galactosidase activities in the diluted solution were measured, and the expression amount of the reporter gene was calculated as a relative luminescence intensity per 1 ng of β-galactosidase per second (RLU/sec/ng β-galactosidase).

With `Clc1cc2c(cc1Cl)Oc1cc(Cl)c(Cl)cc1O2` [TCDD, 2,3,7,8-tetrachlorodibenzo-p-dioxine] the “expression amount of the reporter gene (increase versus unexposed)” value (0.01 nM TCDD) was “approximately 1.2 times”, the “expression amount of the reporter gene (increase versus unexposed)” value (1 nM TCDD) was “approximately 1.6 times” and the “expression amount of the reporter gene (increase versus unexposed)” value (100 nM TCDD) was “approximately 1.8 times”. The “expression amount of the reporter gene, dose dependence” value (0.01 to 100 nM TCDD) was “increased dose-dependently”.
